This passage reports EC50 results from US20240307382A1, “MODULATORS OF THE INTEGRATED STRESS PATHWAY” (Calico Life Sciences LLC, priority 2017, published 2024).

Bounds are passed on as bounds.

For this experiment, the system named is HEK293T cells carrying the ATF4 luciferase reporter. Put plainly: ATF4-Luc assay (ATF4 luciferase reporter, tunicamycin-treated cells). Type of experiment: cell-based. The conditions noted are these: Homo sapiens, HEK-293T, 1 μg/mL tunicamycin, 7 hours. The method, then:
In order to test exemplary compounds of the invention in a cellular context, a stable VWMD cell line was first constructed. The ATF4 reporter was prepared by fusing the human full-length ATF4 5′-UTR (NCBI Accession No. BC022088.2) in front of the firefly luciferase (FLuc) coding sequence lacking the initiator methionine as described in Sidrauski et al (eLife 2013). The construct was used to produce recombinant retroviruses using standard methods and the resulting viral supermatant was used to transduce ITEK293T cells, which were then subsequently selected with puromycin to generate a stable cell line.
HTEK293T cells carrying the ATF4 luciferase reporter were plated on polylysine coated 384-well plates (Greiner Bio-one) at 30,000 cells per well. Cells were treated the next day with 1 μg/mL tunicamycin and 200 nM of a compound of Formula (I) for 7 hours. Luminescence was measured using One Glo (Promega) as specified by the manufacturer. Cells were maintained in DMEM with L-glutamine supplemented with 10% heat-inactivated FBS (Gibco) and Antibiotic-Antimycotic solution (Gibco).
Table 2 below summarizes the EC50 data obtained using the ATF4-Luc assay for exemplary compounds of the invention.
(A reporter such as luciferase makes a cellular process visible.)
For orientation: EC50 means the concentration that produces a half-maximal response. As for `O=C(COc1ccc(Cl)c(Cl)c1)NC12CCC(NC(=O)c3ccc(OC(F)(F)F)nc3)(CC1)C[C@@H]2O` [Compound 1001, N-{(3S)-4-[2-(3,4-dichlorophenoxy)acetamido]-3-hydroxybicyclo[2.2.2]octan-1-yl}-6-(trifluoromethoxy)pyridine-3-carboxamide], the EC50 is below 50 nM. As to `Cc1cc(C(=O)NC23CCC(NC(=O)COc4ccc(Cl)c(Cl)c4)(CC2)[C@@H](O)C3)sn1` [Compound 1002, N-{(3S)-4-[2-(3,4-dichlorophenoxy)acetamido]-3-hydroxybicyclo[2.2.2]octan-1-yl}-3-methyl-1,2-thiazole-5-carboxamide], the EC50 is below 50 nM.

On to `O=C(COc1ccc(Cl)c(Cl)c1)NC12CCC(NC(=O)c3cc(CO)ccn3)(CC1)C[C@@H]2O` [Compound 1003, N-{(3S)-4-[2-(3,4-dichlorophenoxy)acetamido]-3-hydroxybicyclo[2.2.2]octan-1-yl}-4-(hydroxymethyl)pyridine-2-carboxamide], for which the EC50 is below 50 nM. In the case of `O=C(COc1ccc(Cl)c(F)c1)NC12CCC(NC(=O)c3coc(C(F)(F)F)n3)(CC1)C[C@@H]2O` [Compound 1004, N-{(3S)-4-[2-(4-chloro-3-fluorophenoxy)acetamido]-3-hydroxybicyclo[2.2.2]octan-1-yl}-2-(trifluoromethyl)-1,3-oxazole-4-carboxamide], the concentration for a half-maximal effect (EC50) is below 50 nM. For `O=C(COc1ccc(Cl)c(Cl)c1)NC12CCC(NC(=O)c3cnc4cc(F)ccc4n3)(CC1)C[C@@H]2O` [Compound 1005, N-{(3S)-4-[2-(3,4-dichlorophenoxy)acetamido]-3-hydroxybicyclo[2.2.2]octan-1-yl}-6-fluoroquinoxaline-2-carboxamide], the EC50 was below 50 nM. Turning to `O=C(COc1ccc(Cl)c(F)c1)NC12CCC(NC(=O)c3cnc4cc(F)ccc4n3)(CC1)C[C@@H]2O` [Compound 1006, N-{(3S)-4-[2-(4-chloro-3-fluorophenoxy)acetamido]-3-hydroxybicyclo[2.2.2]octan-1-yl}-6-fluoroquinoxaline-2-carboxamide], the EC50 was below 50 nM.

In the case of `Cn1nc(C(=O)NC23CCC(NC(=O)COc4ccc(Cl)c(Cl)c4)(CC2)[C@@H](O)C3)cc1C(F)(F)F` [Compound 1007, N-{(3S)-4-[2-(3,4-dichlorophenoxy)acetamido]-3-hydroxybicyclo[2.2.2]octan-1-yl}-1-methyl-5-(trifluoromethyl)-1H-pyrazole-3-carboxamide], the EC50 was below 50 nM. To `O=C(COc1ccc(Cl)c(Cl)c1)NC12CCC(NC(=O)c3cnc4ccccc4n3)(CC1)C[C@@H]2O` [Compound 1008, N-{(3S)-4-[2-(3,4-dichlorophenoxy)acetamido]-3-hydroxybicyclo[2.2.2]octan-1-yl}quinoxaline-2-carboxamide] belongs below 50 nM. For the molecule `O=C(COc1ccc(Cl)c(Cl)c1)NC12CCC(NC(=O)c3coc(C(F)(F)F)n3)(CC1)C[C@@H]2O` [Compound 1009, N-{(3S)-4-[2-(3,4-dichlorophenoxy)acetamido]-3-hydroxybicyclo[2.2.2]octan-1-yl}-2-(trifluoromethyl)-1,3-oxazole-4-carboxamide], the EC50 is below 50 nM. With `Cn1nc(C(F)F)cc1C(=O)NC12CCC(NC(=O)COc3ccc(Cl)c(Cl)c3)(CC1)[C@@H](O)C2` [Compound 1010, N-{(3S)-4-[2-(3,4-dichlorophenoxy)acetamido]-3-hydroxybicyclo[2.2.2]octan-1-yl}-3-(difluoromethyl)-1-methyl-1H-pyrazole-5-carboxamide], the concentration for a half-maximal effect (EC50) was below 50 nM.

Consider `O=C(COc1ccc(Cl)c(Cl)c1)NC12CCC(NC(=O)c3cnc(C(F)(F)F)cn3)(CC1)C[C@@H]2O` [Compound 1011, N-{(3S)-4-[2-(3,4-dichlorophenoxy)acetamido]-3-hydroxybicyclo[2.2.2]octan-1-yl}-5-(trifluoromethyl)pyrazine-2-carboxamide], for which the EC50 was in the range of 50 to 250 nM.

For the molecule `CC(C)c1cc(C(=O)NC23CCC(NC(=O)COc4ccc(Cl)c(Cl)c4)(CC2)[C@@H](O)C3)on1` [Compound 1012, N-{(3S)-4-[2-(3,4-dichlorophenoxy)acetamido]-3-hydroxybicyclo[2.2.2]octan-1-yl}-3-(propan-2-yl)-1,2-oxazole-5-carboxamide], the EC50 was below 50 nM.

As for `O=C(COc1ccc(Cl)c(Cl)c1)NC12CCC(NC(=O)c3cc(C4CC4)no3)(CC1)C[C@@H]2O` [Compound 1013, 3-cyclopropyl-N-{(3S)-4-[2-(3,4-dichlorophenoxy)acetamido]-3-hydroxybicyclo[2.2.2]octan-1-yl}-1,2-oxazole-5-carboxamide], the concentration giving a half-maximal response (EC50) was below 50 nM. As to `O=C(COc1ccc(Cl)c(Cl)c1)NC12CCC(NC(=O)c3ccc(N4CCCC4)cn3)(CC1)C[C@@H]2O` [Compound 1014, N-{(3S)-4-[2-(3,4-dichlorophenoxy)acetamido]-3-hydroxybicyclo[2.2.2]octan-1-yl}-5-(pyrrolidin-1-yl)pyridine-2-carboxamide], the EC50 is above 2000 nM. `Cc1cc(C(=O)NC23CCC(NC(=O)COc4ccc(F)c(Cl)c4)(CC2)[C@@H](O)C3)on1` [Compound 1015, N-{(3S)-4-[2-(3-chloro-4-fluorophenoxy)acetamido]-3-hydroxybicyclo[2.2.2]octan-1-yl}-3-methyl-1,2-oxazole-5-carboxamide]: the EC50 lay in the range of 50 to 250 nM. As for `Cc1cc(C(=O)NC23CCC(NC(=O)COc4ccc(Cl)cc4)(CC2)[C@@H](O)C3)on1` [Compound 1016, N-{(3S)-4-[2-(4-chlorophenoxy)acetamido]-3-hydroxybicyclo[2.2.2]octan-1-yl}-3-methyl-1,2-oxazole-5-carboxamide], the figure is 50 to 250 nM. In the case of `O=C(COc1ccc(Cl)c(Cl)c1)NC12CCC(NC(=O)c3cc(C(F)(F)F)no3)(CC1)C[C@@H]2O` [Compound 1017, N-{(3S)-4-[2-(3,4-dichlorophenoxy)acetamido]-3-hydroxybicyclo[2.2.2]octan-1-yl}-3-(trifluoromethyl)-1,2-oxazole-5-carboxamide], the EC50 was below 50 nM. Consider `O=C(COc1ccc(Cl)c(F)c1)NC12CCC(NC(=O)c3cc(-c4ccccc4)no3)(CC1)C[C@@H]2O` [Compound 1018, N-{(3S)-4-[2-(4-chloro-3-fluorophenoxy)acetamido]-3-hydroxybicyclo[2.2.2]octan-1-yl}-3-phenyl-1,2-oxazole-5-carboxamide], for which the EC50 was below 50 nM. As for `CCc1c(C(=O)NC23CCC(NC(=O)COc4ccc(Cl)c(F)c4)(CC2)[C@@H](O)C3)nn(C)c1-c1ccccc1` [Compound 1019, N-{(3S)-4-[2-(4-chloro-3-fluorophenoxy)acetamido]-3-hydroxybicyclo[2.2.2]octan-1-yl}-4-ethyl-1-methyl-5-phenyl-1H-pyrazole-3-carboxamide], the figure is 1000 to 2000 nM.

With `Cn1nc(-c2ccccc2)cc1C(=O)NC12CCC(NC(=O)COc3ccc(Cl)c(F)c3)(CC1)[C@@H](O)C2` [Compound 1020, N-{(3S)-4-[2-(4-chloro-3-fluorophenoxy)acetamido]-3-hydroxybicyclo[2.2.2]octan-1-yl}-1-methyl-3-phenyl-1H-pyrazole-5-carboxamide], the EC50 is below 50 nM. Turning to `Cc1oc(-c2ccccc2)cc1C(=O)NC12CCC(NC(=O)COc3ccc(Cl)c(F)c3)(CC1)[C@@H](O)C2` [Compound 1021, N-{(3S)-4-[2-(4-chloro-3-fluorophenoxy)acetamido]-3-hydroxybicyclo[2.2.2]octan-1-yl}-2-methyl-5-phenylfuran-3-carboxamide], the EC50 was below 50 nM.

Turning to `O=C(COc1ccc(Cl)c(F)c1)NC12CCC(NC(=O)c3cc(-c4ccccc4)[nH]n3)(CC1)C[C@@H]2O` [Compound 1022, N-{(3S)-4-[2-(4-chloro-3-fluorophenoxy)acetamido]-3-hydroxybicyclo[2.2.2]octan-1-yl}-5-phenyl-1H-pyrazole-3-carboxamide], the EC50 was below 50 nM. As to `Cn1ncc2cc(C(=O)NC34CC(NC(=O)COc5ccc(Cl)c(F)c5)(C3)C4)ccc21` [Compound 1023, N-{3-[2-(4-chloro-3-fluorophenoxy)acetamido]bicyclo[1.1.1]pentan-1-yl}-1-methyl-1H-indazole-5-carboxamide], the half-maximal effective concentration (EC50) lay in the range of 250 to 1000 nM.

As for `O=C(COc1ccc(Cl)c(Cl)c1)NC12CCC(NC(=O)c3ccc(OC(F)(F)F)cn3)(CC1)C[C@@H]2O` [Compound 1024, N-{(3S)-4-[2-(3,4-dichlorophenoxy)acetamido]-3-hydroxybicyclo[2.2.2]octan-1-yl}-5-(trifluoromethoxy)pyridine-2-carboxamide], the concentration for a half-maximal effect (EC50) was below 50 nM.

Consider `O=C(COc1ccc(Cl)c(Cl)c1)NC12CCC(NC(=O)c3cccc(O)n3)(CC1)C[C@@H]2O` [Compound 1025, N-{(3S)-4-[2-(3,4-dichlorophenoxy)acetamido]-3-hydroxybicyclo[2.2.2]octan-1-yl}-6-hydroxypyridine-2-carboxamide], for which the EC50 was below 50 nM. Take `O=C(COc1ccc(Cl)c(Cl)c1)NC12CCC(NC(=O)c3ccccn3)(CC1)C[C@@H]2O` [Compound 1026, N-{(3S)-4-[2-(3,4-dichlorophenoxy)acetamido]-3-hydroxybicyclo[2.2.2]octan-1-yl}pyridine-2-carboxamide]: the EC50 is below 50 nM.

On to `O=C(COc1ccc(Cl)c(Cl)c1)NC12CCC(NC(=O)c3cccc(C(F)(F)F)n3)(CC1)C[C@@H]2O` [Compound 1027, N-{(3S)-4-[2-(3,4-dichlorophenoxy)acetamido]-3-hydroxybicyclo[2.2.2]octan-1-yl}-6-(trifluoromethyl)pyridine-2-carboxamide], for which the EC50 was below 50 nM.
